Literature values, collected in patent US9308173B2, “Slow-releasing ophthalmic compositions comprising povidone iodine” (JIANGSU DEDA PHARMACEUTICALS CO., LTD., priority 2011, dated 2016).
Like-named read-outs stand apart in the source and are kept apart here.

Test system: infected eyes

Substance: Povidone iodine [PVP-I]
- Toxicity and irritation to the eye (0.02% eye drop (Grimes et al. 1992)): without the toxic affection and irritation
- Germicidal effect (0.02% eye drop, infected eyes treated repeatedly (Grimes et al. 1992)): same germicidal effects as one with concentration of 5.0% povidone iodine
- Toxicity to the eye (0.04% eye drops, clinical disinfection of eyes): no noticeable toxicity
- Toxicity to the eye (eye drops at high concentrations of 5%): toxic effects that cannot be ignored
